# Measurements as given in BindingDB's records for doi:10.1021/ml400408c (Wesleyan University, 2014).
# Biological target: T1, Penicillin-binding protein 4 (Bacillus subtilis (strain 168), UniProt P40750)
# T1 sequence (P40750 whole entry): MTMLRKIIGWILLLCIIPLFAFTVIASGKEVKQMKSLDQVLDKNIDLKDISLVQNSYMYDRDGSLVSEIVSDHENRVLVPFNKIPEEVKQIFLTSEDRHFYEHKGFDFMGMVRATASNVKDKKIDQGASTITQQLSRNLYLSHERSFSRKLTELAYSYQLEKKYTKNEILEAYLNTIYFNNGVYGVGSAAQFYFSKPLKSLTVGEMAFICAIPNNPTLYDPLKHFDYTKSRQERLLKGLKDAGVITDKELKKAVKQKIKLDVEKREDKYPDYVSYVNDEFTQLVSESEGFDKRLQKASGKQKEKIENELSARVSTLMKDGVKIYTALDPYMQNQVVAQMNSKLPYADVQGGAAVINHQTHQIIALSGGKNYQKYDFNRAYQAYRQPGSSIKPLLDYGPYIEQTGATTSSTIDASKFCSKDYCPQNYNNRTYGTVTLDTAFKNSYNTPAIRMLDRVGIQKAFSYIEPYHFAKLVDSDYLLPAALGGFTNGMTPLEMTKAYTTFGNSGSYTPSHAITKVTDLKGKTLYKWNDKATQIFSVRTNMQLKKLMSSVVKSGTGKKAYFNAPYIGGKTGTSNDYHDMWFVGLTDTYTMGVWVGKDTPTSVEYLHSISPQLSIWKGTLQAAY
# Experiment: Inhibition of Bacillus subtilis 168 PBP4 after 30 mins by SDS-PAGE
# Details: read-out: kon (M-1-s-1)
smiles,measurement,value
CC1(C)S[C@@H]2[C@H](NC(=O)COc3ccccc3)C(=O)N2[C@H]1C(=O)O [Beepen-VK],kon,19000 M⁻¹ s⁻¹
